Results reported in PubChem BioAssay (NCI).
Where “and” joins values, the source holds several entries; their conditions need not be identical. Identical values can stand only once.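 96-well plates; 48 h exposure; 5 concentrations. Endpoints by linear interpolation between flanking doses. Not reached: highest tested concentration assigned. GI50 marks 50% less growth. The concentration for full growth arrest is given as TGI.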

Columns and labels:
Assay in all cases: NCI tumour cell line growth inhibition, 48 h
[1] = test system: SW-620 colon
[2] = test system: UO-31 renal
[3] = test system: MOLT-4 leukemia
[4] = test system: A498 renal
[5] = test system: NCI-H23 lung
[6] = test system: RPMI-8226 leukemia
[7] = test system: HT29 colon
[8] = test system: M14 melanoma
[9] = test system: HOP-92 NSCLC
[10] = test system: DU-145 prostate
[11] = test system: BT-549 breast
[12] = test system: MDA-MB-231 breast
[13] = test system: T-47D breast

SMILES	TGI [1] [µM]	TGI [2] [µM]	TGI [3] [µM]	TGI [4] [µM]	TGI [5] [µM]	TGI [6] [µM]	TGI [7] [µM]	TGI [8] [µM]	TGI [9] [µM]	TGI [10] [µM]	TGI [11] [µM]	TGI [12] [µM]	TGI [13] [µM]	GI50 [6]	GI50 [9]
N#CCC(=O)Nc1ccccc1O	> 100	> 100	> 100	> 100	> 100	> 100	> 100	> 100	> 100	–	–	–	–	–	–
CN1C(=O)N(c2nc3ccccc3[nH]2)C(C)(C)C1=O	> 100	> 100	> 100	> 100	> 100	> 100	> 100	> 100	–	–	–	–	–	–	–
O=Cc1ccc(-c2ccc(S(=O)(=O)O)cc2)o1	> 100	> 100	> 100	> 100	> 100	> 100	> 100	> 100	–	> 100	> 100	> 100	–	–	–
COC(=O)C(C#N)C1NC(=O)c2ccccc21 (stereo not drawn)	> 100	> 100	> 100	> 100	> 100	> 100	> 100	> 100	> 100	–	–	–	–	–	–
CC(C)=CCOc1ccc(-c2coc3cc4c(c(O)c3c2=O)C=CC(C)(C)O4)cc1	> 100	> 100	> 100	98.7	> 100	> 100	> 100	–	–	–	–	–	–	–	–
CN1N=C(c2ccccc2)c2cc(Cl)ccc2N=C1N/N=C/c1ccc(N(C)C)cc1	> 100	> 100	> 100	–	> 100	> 100	> 100	> 100	–	> 100	> 100	> 100	> 100	–	–
O=C1c2c(O)cccc2Cc2cc(CO)cc(O)c21	> 100	4.97	57.9	17.8	6.06	7.34	> 100	10.9	4.21	–	86	5.67	11.9	–	–
CC(=O)OC(C)c1cc2c(s1)C(=O)c1ccsc1C2=O (stereo not drawn)	0.835	0.354	0.684	3.32	0.196	0.486	–	0.604	1.74	0.242	0.347	–	1.79	–	–
COc1ccc(NC(=O)NNS(=O)(=O)c2ccc(C)cc2)cc1	> 100	> 100	> 100	> 100	> 100	> 100	> 100	> 100	> 100	> 100	–	> 100	> 100	–	–
CCOC(=O)/C(=C\c1c(C)[nH]c2ccccc12)P(=O)(OCC)OCC	> 100	–	> 100	> 100	> 100	> 100	> 100	> 100	–	> 100	–	> 100	> 100	–	–
COc1cc(/C=N/n2c(C)n[nH]c2=O)cc(OC)c1OC	> 100	> 100	> 100	> 100	> 100	–	> 100	> 100	–	–	> 100	> 100	> 100	–	–
Cc1cc(C)c(C(=O)C(C)C(c2ccccc2)c2ccc(Cl)cc2)c(C)c1 (stereo not drawn)	> 100	> 100	> 100	–	> 100	> 100	> 100	> 100	> 100	–	–	–	–	82.4 µM and 29.3 µM	47.4 µM and > 100 µM
CC(O)C1OC(n2ccc(=O)[nH]c2=O)CC1n1cncn1 (stereo not drawn)	> 100	> 100	> 100	> 100	> 100	> 100	> 100	> 100	–	–	–	–	–	–	–
O=C(NCc1ccccc1)C1C(=O)C(=O)N(Cc2ccccc2)C1=O (stereo not drawn)	> 100	> 100	> 100	> 100	> 100	> 100	> 100	> 100	> 100	–	–	–	–	–	–
Cc1ccc2c(c1)CC1(C2)Cc2ccc(C)cc2C1=O (stereo not drawn)	> 100	> 100	45.7	> 100	> 100	95.3	56.2	71.6	66.3	> 100	–	62.5	> 100	–	–
C/C(=N/N)c1sc(-c2nc(C)c(/C(C)=N\N)s2)nc1C	> 100	> 100	83.3	> 100	> 100	> 63.9	> 100	> 100	> 100	–	–	–	–	–	–
CC(C)(C)OC(=O)C1/C(=C/CBr)CN1C(=O)OC(C)(C)C (stereo not drawn)	19.4	33.1	26.1	31.8	28.8	18.1	> 100	41.9	31.8	–	36.2	–	–	–	–
Oc1ccc(/C=N/c2nccs2)c(O)c1	–	> 100	–	–	> 100	–	> 100	> 100	–	> 100	> 100	> 100	–	–	–
COC1OC(Cn2cc([N+](=O)[O-])nc2C)C(O)C(O)C1O (stereo not drawn)	> 100	> 100	> 100	> 100	> 100	> 100	> 100	> 100	> 100	> 100	–	> 100	> 100	–	–
C/C(=C\CC/C=C(\C)CC/C=C(\C)CCC1SC1(C)C)CC/C=C(\C)CCC1OC1(C)C (stereo not drawn)	> 100	> 100	> 100	> 100	> 100	> 100	> 100	> 100	> 100	–	–	–	–	–	–
N#CC(C#N)=Cn1c(=S)[nH]c2ccc([N+](=O)[O-])cc21	> 100	> 100	> 100	> 100	> 100	> 100	> 100	> 100	> 100	> 100	–	> 100	> 100	–	–
